From US10519114B2, “Peptidomimetics and methods of using the same” (The Regents of the University of Michigan, priority 2016, dated 2019)

Key:
[1] = target: T1, rat δ (C6-DOR) opioid receptor (Rattus norvegicus, UniProt P33533); experiment: Radioligand binding assay, [3H]diprenorphine displacement, DOR; settings: displacement of 0.2 nM [3H]diprenorphine, C6-DOR membranes; mean ± standard error
T1 construct: expressed in transfected cells
Method: (§1) In Vitro Pharmacology-Cell Lines and Membrane Preparations. All tissue culture reagents were purchased from Gibco Life Sciences (Grand Island, N.Y., U.S.). C6-rat glioma cells stably transfected with a rat μ (C6-MOR) or rat δ (C6-DOR) opioid receptor20 and Chinese hamster ovary (CHO) cells stably expressing a human K (CHO-KOR) opioid receptor21 were used for all in vitro assays. Cells were grown to confluence at 37° C. in 5% CO2 in Dulbecco's modified Eagle medium containing 10% fetal bovine serum and 5% penicillin/streptomycin. Membranes were prepared by washing confluent cells three times with ice cold phosphate buffered saline (0.9% NaCl, 0.61 mM Na2HPO4, 0.38 mM KH2PO4, pH 7.4). Cells were detached from the plates by incubation in warm harvesting buffer (20 mM HEPES, 150 mM NaCl, 0.68 mM EDTA, pH 7.4) and pelleted by centrifugation at 200 g for 3 min. The cell pellet was suspended in ice-cold 50 mM Tris-HCl buffer, pH 7.4, and homogenized with a Tissue Tearor (Biospec Products, Inc., Bartlesville, Okla., U.S.) for 20 s at setting 4. The homogenate was centrifuged at 20 000 g for 20 min at 4° C., and the pellet was rehomogenized in 50 mM Tris-HCl with a Tissue Tearor for 10 s at setting 2, followed by recentrifugation. The final pellet was resuspended in 50 mM Tris-HCl and frozen in aliquots at […]. Protein concentration was determined via Bradford assay using bovine serum albumin as the standard.
(§2) Radioligand Binding Assays. Radioactive compounds were purchased from Perkin-Elmer (Waltham, Mass., U.S.). Opioid ligand binding assays were performed using competitive displacement of 0.2 nM [3H]diprenorphine (250 μCi, 1.85 TBq/mmol) by the test compound from membrane preparations containing opioid receptors. The assay mixture, containing membrane suspension (20 μg protein/tube) in 50 mM Tris-HCl buffer (pH 7.4), [3H]diprenorphine, and various concentrations of test peptide, was incubated at room temperature for 1 h to allow binding to reach equilibrium. The samples were rapidly filtered through Whatman GF/C filters using a Brandel harvester (Brandel, Gaithersburg, Md., U.S.) and washed three times with 50 mM Tris-HCl buffer. The radioactivity retained on dried filters was determined by liquid scintillation counting after saturation with EcoLume liquid scintillation cocktail in a Wallac 1450 MicroBeta (Perkin-Elmer, Waltham, Mass., U.S.). Nonspecific binding was determined using 10 μM naloxone. Inhibitory constant (Ki) values were calculated using nonlinear regression analysis to fit a logistic equation to the competition data using GraphPad Prism, version 5.01, for Windows (GraphPad Software Inc., La Jolla, Calif.). The results presented are the mean±standard error from at least three separate assays performed in duplicate.

[2] = target: T1, rat δ (C6-DOR) opioid receptor; experiment: Stimulation of [35S]GTPγS binding, DOR; assay type: biochemical; settings: for EC50 / EC50 (nm) DOR: [35S]GTPγS binding, C6-DOR membranes, mean ± standard error; for Emax / % stimulation DOR: [35S]GTPγS maximal stimulation compared with 10 μM standard DPDPE
Method: as §1
(§3) Stimulation of [^35S]GTPyS Binding. Agonist stimulation of [35S]guanosine 5′-O-[γ-thio]triphosphate ([^35S]GTPγS, 1250 Ci, 46.2 TBq/mmol) binding was measured as described previously Briefly, membranes (10-20 μg of protein/tube) were incubated 1 h at room temperature in GTPyS buffer (50 mM Tris-HCl, 100 mM NaCl, 5 mM MgCl2, pH 7.4) containing 0.1 nM [^35S]GTPγS, 30 μM guanosine diphosphate (GDP), and varying concentrations of test peptides. Peptide stimulation of [^35S]GTPyS was compared with 10 μM standard compounds [D-Ala^2,N-MePhe^4,Gly-ol]encephalin (DAMGO) at MOR, D-Pen^2,5-enkephalin (DPDPE) at DOR, or […] at KOR. The reaction was terminated by rapidly filtering through GF/C filters and washing 10 times with GTPyS buffer, and retained radioactivity was measured as described above. The results presented are the mean±standard error from at least three separate assays performed in duplicate; maximal stimulation was determined using nonlinear regression analysis with GraphPad Prism (GraphPad Software Inc., La Jolla, Calif.).

[3] = target: T2, rat μ (C6-MOR) opioid receptor (Rattus norvegicus, UniProt P33535); experiment: Radioligand binding assay, [3H]diprenorphine displacement, MOR; settings: displacement of 0.2 nM [3H]diprenorphine, C6-MOR membranes; mean ± standard error
T2 construct: expressed in transfected cells
T2 sequence (P33535 whole entry): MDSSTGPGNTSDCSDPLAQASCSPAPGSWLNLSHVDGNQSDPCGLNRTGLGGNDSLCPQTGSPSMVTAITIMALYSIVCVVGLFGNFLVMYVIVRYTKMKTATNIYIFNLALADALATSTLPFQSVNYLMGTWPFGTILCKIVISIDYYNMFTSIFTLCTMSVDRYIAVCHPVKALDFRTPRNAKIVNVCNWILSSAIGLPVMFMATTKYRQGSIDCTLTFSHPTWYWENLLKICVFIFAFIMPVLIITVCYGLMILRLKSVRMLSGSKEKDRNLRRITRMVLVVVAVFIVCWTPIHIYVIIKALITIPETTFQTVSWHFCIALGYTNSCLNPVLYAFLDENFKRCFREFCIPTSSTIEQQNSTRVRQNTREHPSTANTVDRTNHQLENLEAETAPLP
Method: as §1, §2

[4] = target: T2, rat μ (C6-MOR) opioid receptor; experiment: Stimulation of [35S]GTPγS binding, MOR; assay type: biochemical; settings: for Emax / % stimulation MOR: [35S]GTPγS maximal stimulation compared with 10 μM standard DAMGO
Method: as §1, §3

[5] = target: T3, human κ (CHO-KOR) opioid receptor (Homo sapiens, UniProt P41145); experiment: Radioligand binding assay, [3H]diprenorphine displacement, KOR; settings: displacement of 0.2 nM [3H]diprenorphine, CHO-KOR membranes; mean ± standard error
T3 construct: expressed in transfected cells
T3 sequence (P41145 whole entry): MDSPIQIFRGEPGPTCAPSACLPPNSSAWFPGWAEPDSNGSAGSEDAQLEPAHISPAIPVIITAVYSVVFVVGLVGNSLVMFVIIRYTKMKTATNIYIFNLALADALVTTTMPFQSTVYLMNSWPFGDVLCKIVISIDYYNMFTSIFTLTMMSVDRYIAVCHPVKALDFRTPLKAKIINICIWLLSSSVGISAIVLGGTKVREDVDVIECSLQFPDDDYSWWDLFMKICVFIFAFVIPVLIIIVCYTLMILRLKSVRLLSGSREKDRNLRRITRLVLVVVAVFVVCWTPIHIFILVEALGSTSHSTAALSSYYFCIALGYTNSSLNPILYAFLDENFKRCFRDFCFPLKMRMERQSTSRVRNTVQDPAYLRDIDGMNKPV
Method: as §1, §2

[6] = target: T3, human κ (CHO-KOR) opioid receptor; experiment: Stimulation of [35S]GTPγS binding, KOR; assay type: biochemical
Method: as §1, §3

[7] = [35S]GTPγS binding, C6-MOR membranes, mean ± standard error

T1 sequence (P33533 whole entry): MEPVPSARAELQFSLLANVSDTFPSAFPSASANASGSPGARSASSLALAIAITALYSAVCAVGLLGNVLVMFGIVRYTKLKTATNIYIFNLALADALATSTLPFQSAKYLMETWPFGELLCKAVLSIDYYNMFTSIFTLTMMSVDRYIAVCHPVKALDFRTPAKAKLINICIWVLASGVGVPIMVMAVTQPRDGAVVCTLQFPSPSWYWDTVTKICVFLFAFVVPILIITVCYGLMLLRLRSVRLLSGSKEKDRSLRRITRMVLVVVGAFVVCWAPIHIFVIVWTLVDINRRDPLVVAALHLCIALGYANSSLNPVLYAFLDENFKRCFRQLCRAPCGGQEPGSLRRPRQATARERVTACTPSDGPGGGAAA

| Structure (SMILES) | Ki [1] | EC50 [2] | Emax [2] | Ki [3] | EC50 [4, 7] | Emax [4] | Ki [5] | EC50 (nm) DOR [2] | % stimulation DOR [2] | % stimulation MOR [4] | EC50 (nm) MOR [4, 7] | EC50 ([6]; [35S]GTPγS binding, CHO-KOR membranes, mean ± standard error) | Emax ([6]; [35S]GTPγS maximal stimulation compared with 10 μM standard U-69,593) |
| --- | --- | --- | --- | --- | --- | --- | --- | --- | --- | --- | --- | --- | --- |
| Cc1cc(O)cc(C)c1C[C@H](N)C(=O)N[C@@H]1CCNc2cc(O)c(Cc3ccccc3)cc21 [Compound 1046] | 2.74 ± 0.05 nM | 237 nM | 20.3% | 0.33 ± 0.14 nM | 9.86 ± 3.79 nM | 94.7 ± 4.19% | 15.1 nM |  |  |  |  |  |  |
| Cc1cc(O)cc(C)c1C[C@H](N)C(=O)N[C@@H]1CCNc2ccc(Cn3n[n+]([O-])c4ccc(Cl)cc43)cc21 [Compound 1047] | 3.54 ± 0.83 nM |  |  | 0.35 ± 0.05 nM | 3.45 ± 0.67 nM | 81.6 ± 1.48% | 22.5 ± 8.83 nM | dns | dns |  |  |  |  |
| Cc1cc(O)cc(C)c1C[C@H](N)C(=O)N[C@@H]1CCCc2ccc(Oc3ccccc3)cc21 [Compound 1118] | 13 ± 1.01 nM |  | 1.65 ± 1.65% | 0.33 ± 0.09 nM | 43 ± 14 nM | 41.9 ± 8.97% | 38.5 ± 5.39 nM |  |  |  |  |  |  |
| CC(=O)N1CC[C@@H](NC(=O)[C@@H](N)Cc2c(C)cc(O)cc2C)c2cccc(Cc3ccccc3)c21 [Compound 1040] | 6.19 nM |  |  | 92.4 nM | 19 nM | 8.03% |  |  |  |  |  |  |  |
| Cc1cc(O)cc(C)c1C[C@H](N)C(=O)N[C@@H]1CCNc2ccc(CN3CCC4(CCCCC4)C3)cc21 [Compound 1105] | 14.1 nM |  |  | 1.14 nM |  |  | 1.66 nM |  |  |  |  |  |  |
| COc1cc(Cl)c(C[C@H](N)C(=O)N[C@@H]2CCNc3ccc(Cc4ccccc4)cc32)c(Cl)c1 [Compound 1021] | 2700 nM |  |  | 38.1 ± 5.83 nM | 1390 ± 480 nM | 34.8 ± 2.52% | 1210 nM |  |  |  |  |  |  |
| CC(=O)N1CC[C@H](NC(=O)[C@@H](N)Cc2c(C)cc(O)cc2C)c2cc(Oc3ccccc3)ccc21 [Compound 1020] | 92.9 ± 15.1 nM | 204 nM | 16% | 6.25 ± 1.39 nM | 598 ± 282 nM | 60.4 ± 2.04% | 787 nM |  |  |  |  |  |  |
| CCC(=O)N1CC[C@@H](NC(=O)[C@@H](N)Cc2c(C)cc(O)cc2C)c2cc(CC3Cc4ccccc4C3)ccc21 [Compound 1033] | 0.3 ± 0.11 nM |  |  | 0.06 ± 0.01 nM | 3.61 ± 2.02 nM | 52 ± 7.7% |  | dns | dns |  |  |  |  |
| Cc1cc(O)cc(C)c1C[C@H](N)C(=O)N[C@@H]1CCNc2ccc(CC3Cc4ccccc4C3C)cc21 (stereo partly shown) [Compound 1043] | 12 ± 1.17 nM |  |  | 0.43 ± 0.18 nM | 3.21 ± 1.25 nM | 92.4 ± 8.06% | 35.7 ± 23.6 nM | dns | dns |  |  |  |  |
| Cc1cc(O)cc(C)c1C[C@H](N)C(=O)N[C@@H]1CCNc2ccc(C(c3ccccc3)c3ccccc3)cc21 [Compound 1022] | 2.29 ± 0.36 nM |  | 0% | 0.2 ± 0.02 nM | 12.5 ± 8.76 nM | 24.5 ± 0.29% | 6.91 ± 0.21 nM |  |  |  |  |  |  |
| CCCc1cc(Cc2ccccc2)cc2c1N(C(C)=O)CC[C@H]2NC(=O)[C@@H](N)Cc1c(C)cc(O)cc1C [Compound 1107] | 1.95 nM |  |  | 0.35 nM |  |  | 32.7 nM |  |  |  |  |  |  |
| COc1ccccc1Oc1ccc2c(c1)[C@H](NC(=O)[C@@H](N)Cc1c(C)cc(O)cc1C)CCN2C(C)=O [Compound 1031] | 2.7 nM |  |  | 0.27 ± 0.05 nM | 39.7 ± 17 nM | 30.5 ± 1.74% |  |  |  |  |  |  |  |
| Cc1cc(O)cc(C)c1C[C@H](N)C(=O)N[C@@H]1CCNc2ccc(Oc3cccc(Cl)c3)cc21 [Compound 1030] | 2.59 nM |  |  | 0.08 ± 0.01 nM | 10.1 ± 3.25 nM | 27.2 ± 2.11% |  |  |  |  |  |  |  |
| Cc1cc(O)cc(C)c1C[C@H](N)C(=O)N[C@@H]1CCNc2ccc(CN3CCNCC3)cc21 [Compound 1059] | 1560 ± 288 nM |  |  | 16.6 ± 8.63 nM | 90.5 ± 73.2 nM |  | 11.7 ± 1.56 nM |  |  | dns |  |  |  |
| Cc1cc(O)cc(C)c1C[C@H](N)C(=O)N[C@@H]1CC[C@@H](C)c2ccc(Cc3ccccc3)cc21 [Compound 1121] | 15.8 ± 4.72 nM | 109 ± 80.7 nM | 14.3 ± 4.34% | 0.32 ± 0.1 nM |  |  |  |  |  | dns | dns |  |  |
| Cc1cc(O)cc(C)c1C[C@H](N)C(=O)N[C@@H]1CCC(C)(C)c2ccc(Cc3ccccc3)cc21 [Compound 1122] | 6.5 ± 0.66 nM | 1090 ± 654 nM | 16 ± 2.78% | 0.36 ± 0.08 nM | 16 ± 4.74 nM | 75.4 ± 4.06% |  |  |  |  |  | 2100 nM | 77.8% |
| N[C@@H](Cc1ccc(Cl)cc1Cl)C(=O)N[C@@H]1CCNc2ccc(Cc3ccccc3)cc21 [Compound 1028] | 2090 nM |  | 0% | 50.6 ± 10.6 nM |  | 13.8 ± 1.27% |  |  |  |  |  |  |  |
| CC(=O)N1CC[C@@H](NC(=O)[C@@H](N)Cc2c(C)cc(O)cc2C)c2cc(Cc3ccccc3)cc(Br)c21 [Compound 1108] | 1.35 nM |  |  | 0.49 nM |  |  | 33.3 nM |  |  |  |  |  |  |
| N[C@@H](Cc1c(Cl)cc(O)cc1Cl)C(=O)N[C@@H]1CCCc2ccc(Oc3ccccc3)cc21 [Compound 1119] | 105 ± 10.5 nM |  |  | 1.53 ± 0.64 nM | 118 ± 76 nM | 20.7 ± 2.91% |  | dns | dns |  |  |  |  |
| COc1ccccc1Oc1ccc2c(c1)[C@H](NC(=O)[C@@H](N)Cc1c(C)cc(O)cc1C)CCN2 [Compound 1029] | 9.97 ± 0.71 nM |  | 0% | 0.36 ± 0.04 nM | 46.7 ± 4.12 nM | 35.7 ± 2.58% |  |  |  |  |  |  |  |
| COc1cccc2c1CC(Cc1ccc3c(c1)[C@H](NC(=O)[C@@H](N)Cc1c(C)cc(O)cc1C)CCN3)C2 (stereo partly drawn) [Compound 1035, (2S)-2-amino-3-(4-hydroxy-2,6-dimethylphenyl)-N-((4R)-6-((4-methoxy-2,3-dihydro-1H-inden-2-yl)methyl)-1,2,3,4-tetrahydroquinolin-4-yl)propanamide] | 4.13 ± 2.27 nM |  |  | 0.09 nM | 1.44 nM | 32.9% |  | dns | dns |  |  |  |  |
| Cc1cc(O)cc(C)c1C[C@H](N)C(=O)N[C@@H]1CCNc2ccc(CN3CCCC4(CCCCC4)CC3)cc21 [Compound 1106] | 17 nM |  |  | 0.54 nM |  |  | 3.08 nM |  |  |  |  |  |  |
| COc1ccc2c(c1)CC(Cc1ccc3c(c1)[C@H](NC(=O)[C@@H](N)Cc1c(C)cc(O)cc1C)CCN3)C2 (stereo partly shown) [Compound 1037] | 6.15 ± 2.09 nM |  |  | 0.26 ± 0.15 nM | 354 nM | 10.9% |  | dns | dns |  |  |  |  |
| Cc1cc(O)cc(C)c1C[C@H](N)C(=O)N[C@@H]1CC[C@H](C)c2ccc(Cc3ccccc3)cc21 [Compound 1120] | 5.85 ± 0.58 nM |  |  | 0.08 ± 0.02 nM | 16 ± 1.94 nM | 72.3 ± 3.67% |  | dns | dns |  |  |  |  |
